Values quoted from earlier work as cited in the CATMoS acute toxicity set (Mansouri et al. 2021).
Where “and” joins values, the source holds several entries; their conditions need not be identical. Equal values may be shown once.

Assay: rat acute oral toxicity
Conditions: in vivo
From the text: […]The data set underlying the modeling effort for this project was initially compiled by NICEATM and U.S. EPA’s CCTE. Briefly, LD50 data were collected from rat acute oral systemic toxicity tests, including limit tests, ranges/confidence intervals, and discrete LD50 values. The full data set included 21,200 LD50 entries for 15,688 substances. […] Data were reviewed to ensure that LD50 values with obvious errors in the extracted data such as unit conversion errors (e.g., comma and decimal separator misplacements) were either fixed or removed. After this review, 16,209 LD50 values remained. Many of the chemicals represented had multiple LD50 entries, requiring that a single representative value per Chemical Abstracts Service Registry Number (CASRN) identifier be defined to facilitate modeling efforts. Based on ATWG feedback and to define the representative LD50 as a protective value while accounting for the distribution across multiple LD50s, the median of the lowest quartile was computed using only discrete LD50 values (omitting limit test data and range and confidence interval data). A detailed summary of the data compilation is available online on the NICEATM webpage dedicated to the collaborative modeling project (NTP 2020).
[…][…] For categorical designations, limit test and range/confidence interval LD50 data were integrated wherever possible. As such, the number of chemicals with end point values/calls varies across the modeling end points (Table 3) based on whether chemicals had representative LD50 values and/or other data. If a chemical had both, the representative value was used to determine categorical calls rather than limit test data. Some data were useable only for certain end points and categories depending on the thresholds. For example, ranges that spanned multiple hazard categories were considered only for the binary (very toxic/nontoxic) end points and omitted from rendering a determination for hazard category assignment.
[…]The final data set comprising 11,992 chemicals was split into training and evaluation sets […], respectively. This process was performed semirandomly by ordering chemicals based on the five end points (categorical and continuous LD50 values) and partitioning every fourth record into the evaluation set accordingly. This approach was taken to ensure an equivalent distribution of the LD50 values and the different hazard categories between the training and the evaluation sets without supervised sampling of the chemicals based on structures (Figure 1A). The sources of the chemical structures were also kept equivalent between the two sets, with chemical structures obtained from DSSTox, being the highest quality, representing over 75% of each set (Figure 1B).

| SMILES | LD50 |
| --- | --- |
| O=[N+]([O-])c1ccc([C@@H](O)[C@@H]2COC(C(Cl)Cl)=N2)cc1 | 6000 mg/kg |
| C1CN1P1(N2CC2)=NP(N2CC2)(N2CC2)=NP(N2CC2)(N2CC2)=N1 | 98 mg/kg |
| C1CNCCN1 | 4900 mg/kg |
| O=C1c2c(O)ccc(O)c2C(=O)c2c(NCCNCCO)ccc(NCCNCCO)c21 | 682 mg/kg |
| C1COC(NC(C2CC2)C2CC2)=N1 | 295 mg/kg |
| Cc1ccc(C(C)C=O)cc1 (stereo not given) | 3500 mg/kg |
| CN(N=Nc1ccccc1)N=Nc1ccccc1 | 212 mg/kg |
| Cc1cc(Cl)cc(O)c1O | 1410 mg/kg |
| C[N+](C)(C)CCCCCCCCCC[N+](C)(C)C | 85 mg/kg |
| Cc1cc(F)ccc1NC(=O)c1cc(Cl)cc(-c2ccc(Cl)cc2)c1O | 2510 mg/kg |
| c1ccc(-c2cccc(-c3ccccc3)c2)cc1 | 2400 mg/kg |
| CCOP(=S)(OCC)Oc1nc(Cl)n(C(C)C)n1 | 27 mg/kg |
| CCCCCCCCCCCCCCOC(=O)Cc1ccc(N(CCCl)CCCl)cc1 | 46 mg/kg |
| CCN(CC)CCNC(=O)c1ccc(N)cc1 | 1950 mg/kg |
| CC(=O)OCC(COc1ccccc1)OC(C)=O (stereo not given) | 5250 mg/kg |
| CC(C)C1=CCC(CCOC=O)=CC1 | 3570 mg/kg |
| C=COCCOC | 3900 mg/kg |
| COC(=O)c1cccc(C(=O)OC)c1 | 4390 mg/kg |
| CCN(CC)CCOc1ccc(C2=C(c3ccccc3)Cc3cc(OC)ccc32)cc1 | 547 mg/kg |
| O=C(O)c1cc(Oc2ccc(C(F)(F)F)cc2Cl)ccc1[N+](=O)[O-] | 1370 mg/kg |
| CCC/C=C/C(OCC)OCC | 860 mg/kg |
| CCOP(=O)(OCC)SCCS(=O)CC (stereo not given) | 2 mg/kg |
| CC(C)OC(=O)c1cncc(C(=O)OC(C)C)c1 | 5230 mg/kg |
| CNC(=O)Oc1cccc2c1OC(C)(C)O2 | 40 mg/kg |
| CC(=O)OCC=C(C)C | 2900 mg/kg |
| CN(C)CCN | 1140 mg/kg |

| SMILES | LD50 |
| --- | --- |
| COP(=O)(OC)SC | 15 mg/kg |
| C/[N+]([O-])=N/CO[C@@H]1O[C@H](CO)[C@@H](O)[C@H](O)[C@H]1O | 270 mg/kg |
| CC=CC(=O)OC(C=CC)OC(=O)C=CC (stereo not given) | 2590 mg/kg |
| CCCn1c(=O)c2[nH]c(C)nc2n(CC(C)C)c1=O | 19 mg/kg |
| CCOC(=O)C(C(C)=O)P(=O)(OCC)OCC (stereo not given) | 176 mg/kg |
| O=[N+]([O-])c1cc(Br)c2nc(C(F)(F)F)[nH]c2c1 | 14.5 mg/kg |
| CC(=O)N(/C(=N/c1cccnc1)NC#N)C(C)(C)C | 615 mg/kg |
| O[C@@H](c1cc(C(F)(F)F)nc2c(Cl)cc(Cl)cc12)[C@@H]1CCCCN1 | 1130 mg/kg |
| CNCCCC1(C#N)c2ccccc2CCc2ccccc21 | 889 mg/kg |
| CCOC(=O)Nc1ccc2c(c1)N(C(=O)CCN1CCOCC1)c1ccccc1S2 | 1000 mg/kg |
| CCC1(CC)C(=O)NCC(C)C1=O (stereo not given) | 860 mg/kg |
| CN(C)C(=O)Nc1cc(C(C)(C)C)on1 | 630 mg/kg |
| NCCc1ccc(O)c(O)c1 | 2860 mg/kg |
| CN(C)CCN(Cc1ccc(Cl)cc1)c1ccccn1 | 920 mg/kg |
| CCOC(=O)N1CC=Cc2ccccc21 | 195 mg/kg |
| FCCBr | 5 mg/kg |
| O=[N+]([O-])c1cc(Br)cc2[nH]c(C(F)(F)F)nc12 | 1.23 mg/kg |
| Cc1cncc(C)n1 | 880 mg/kg |
| CC(Cc1ccccc1)NCCn1cnc2c1c(=O)n(C)c(=O)n2C (stereo not given) | 100 mg/kg |
| CC(C)C(CCN(C)C)(C(N)=O)c1cccc2ccccc12 (stereo not given) | 1030 mg/kg |
| O=[N+]([O-])c1cc([N+](=O)[O-])c(Nc2cc(C(F)(F)F)ccc2Cl)c(C(F)(F)F)c1 | 94 mg/kg |
| C=CCCCCCCCCC(=O)O | 2500 mg/kg |
| OCC1OC(N2CCN(C3OC(CO)C(O)C(O)C3O)CC2)C(O)C(O)C1O (stereo not given) | 30000 mg/kg |
| CCCCOC(=O)[C@@H](C)Oc1ccc(Oc2ccc(C(F)(F)F)cn2)cc1 | 2710 mg/kg |
| CNC(C)C#N (stereo not given) | 48 mg/kg |
| O=C(O)CNC(=O)c1ccc(Cl)cc1 | 2230 mg/kg |

| SMILES | LD50 |
| --- | --- |
| CN(C)C(=O)Oc1c(Cl)c(Cl)cc2[nH]c(C(F)(F)F)nc12 | 41 mg/kg |
| CCCCC(=O)CC | 2760 mg/kg |
| CCOP(=O)(O)CCCl | 1250 mg/kg |
| Cc1c(Cl)cc(-c2ccc(O)nn2)cc1Cl | 12000 mg/kg |
| CCOC(C)C#N (stereo not given) | 2860 mg/kg |
| O=C(O)c1cc(-n2c(-c3ccccc3)cc3c2CCc2ccccc2-3)ccc1O | 450 mg/kg |
| CCCN(CCC)N=O | 480 mg/kg |
| O=C(NC(O)C(Cl)(Cl)Cl)NC(O)C(Cl)(Cl)Cl (stereo not given) | 6400 mg/kg |
| FC(F)OC(F)(F)C(F)Cl (stereo not given) | 5450 mg/kg |
| Ic1nc(I)c(I)[nH]1 | 278 mg/kg |
| NCCCCCCC(=O)O | 9000 mg/kg |
| CN(C)CCN1C(=O)c2ccccc2N(C)c2ccccc21 | 220 mg/kg |
| C=CCSC1=NCCS1 | 110 mg/kg |
| Cc1nc2n(c(=O)c1CCN1CCC(c3noc4cc(F)ccc34)CC1)CCCC2 | 56.6 mg/kg |
| CCCN=C(C(OC)c1ccccc1)N1CCCCCC1 (stereo not given) | 55 mg/kg |
| CCCC1C(=O)N(c2ccccc2)N(c2ccccc2)C1=O | 529 mg/kg |
| O=C=Nc1ccc(Cl)c(C(F)(F)F)c1 | 500 mg/kg |
| CCN(CCNC(=O)SCC(C)C)C(=O)SCC(C)C | 2710 mg/kg |
| CCCCCCCC(=O)Oc1ccc(C)cc1 | 1600 mg/kg |
| O=C1OCCO1 | 10000 mg/kg |
| COC(=O)c1ccccc1C(=O)c1ccc(OCCN2CCCCC2)cc1 | 3600 mg/kg |
| COP(=S)(OC)SCC(=O)N(c1ccc(Cl)cc1)C(C)C | 472 mg/kg |
| CC(=O)OCCC1=CC2CC(C1)C2(C)C (stereo not given) | 3000 mg/kg |
| COc1ccc(C2Sc3ccccc3N(CCN(C)C)C(=O)C2OC(C)=O)cc1 (stereo not given) | 560 mg/kg |
| CC(=O)OC1=C(c2c(C)cc(C)cc2C)C(=O)c2ccccc21 | 8000 mg/kg |
| CCOP(=S)(OCC)SC1CCSc2ccc(Cl)cc21 (stereo not given) | 63 mg/kg |

| SMILES | LD50 |
| --- | --- |
| Oc1cccc(Cl)c1-c1ccccc1 | 3500 mg/kg |
| CC(=O)CC(=O)OC(C)C | 16200 mg/kg |
| CC(C)c1ccc(N)cc1 | 985 mg/kg |
| CCO[Si](CS)(OCC)OCC | 2550 mg/kg |
| CN1C2CCC(C)(C)C1CC(OC(=O)C(O)(c1cccs1)c1cccs1)C2 (stereo not given) | 1180 mg/kg |
| CCN(CC)NNCCCO | 3730 mg/kg |
| CC[N+]1(CCOC(=O)C(O)(c2ccccc2)c2ccccc2)CCCCC1 | 4600 mg/kg |
| Cc1ncc(CO)c(C(=O)O)c1O | 7500 mg/kg |
| OC1(c2ccccc2)c2cc(F)ccc2C2=NCCN21 (stereo not given) | 40 mg/kg |
| CC(=O)N(CC(C)C(=O)O)c1c(I)cc(I)c(N)c1I (stereo not given) | 7100 mg/kg |
| N#CCCC#N | 450 mg/kg |
| CSc1nc(N=[N+]=[N-])nc(NC(C)C)n1 | 3600 mg/kg |
| CCOP(=S)(OCC)SC1CCC2C=CCC1S2 (stereo not given) | 140 mg/kg |
| FC1(F)C(Cl)=C(Cl)C(F)(F)C1(F)F | 280 mg/kg |
| CCOC(=O)C=Cc1ccc2c(c1)OCO2 | 948 mg/kg |
| CN(C(=O)c1ccc(N)cc1)C1CCN(C2CCCCC2)C1 (stereo not given) | 422 mg/kg |
| Nc1c2c(nc3ccccc13)CCCC2O (stereo not given) | 176 mg/kg |
| OC[C@@H](O)[C@@H](O)[C@H](O)[C@@H](O)CO | 15900 mg/kg |
| CCC(C)(C)c1ccc(O)c(C(C)(C)CC)c1 | 330 mg/kg |
| CCNc1nc(NC(C)(C)C)nc(SC)n1 | 2040 mg/kg |
| O=S(=O)(O)c1ccc(N2CCC(c3ccc(Cl)cc3)=N2)cc1 | 5530 mg/kg |
| NCCNCCNCCN | 2500 mg/kg and 2280 mg/kg |
| CCSC(C)CC1CC(=O)C(C(=O)CC)C(=O)C1 (stereo not given) | 170 mg/kg |
| COc1ccc(C(Oc2ccccc2)C2=NCCCN2)cc1 (stereo not given) | 1000 mg/kg |
| CCCOP(=O)(OCCC)Oc1cnn(C)c(=O)c1OC | 15 mg/kg |
| CC(C)(C)N(Cl)Cl | 780 mg/kg |

| SMILES | LD50 |
| --- | --- |
| CCN1C(=O)c2ccccc2C1Nc1ccc(OCCN2CCCCC2)cc1 (stereo not given) | 695 mg/kg |
| CCCOCCOC(C)=O | 9460 mg/kg |
| CC1CCCCN1CCCOC(=O)c1ccc(OC2CCCCC2)cc1 (stereo not given) | 2340 mg/kg |
| Oc1cc2nc(C(F)(F)F)[nH]c2cc1Cl | 55.5 mg/kg |
| CC[Se][Se]CC | 90 mg/kg |
| NCCCC[C@H](N)C(=O)O | 11400 mg/kg and 10000 mg/kg |
| Clc1ccc2c(c1)C(c1ccccc1)=NCc1nncn1-2 | 2500 mg/kg |
| CC(=O)SCc1cnc(C)c(O)c1CSC(C)=O | 870 mg/kg |
| O=C(O)C1CCc2cc(C3CCCCC3)c(O)cc21 (stereo not given) | 450 mg/kg |
| CCC1Cc2cc(CC(=O)O)ccc2O1 (stereo not given) | 1300 mg/kg |
| Nc1ccc(S(=O)(=O)O)c2cccc(O)c12 | 6210 mg/kg |
| C[N+](C)(C)CCI | 700 mg/kg |
| NS(=O)(=O)CCNC(=O)N(CCCl)N=O | 40 mg/kg |
| CCC1(CC)Oc2cccc(OC(=O)N(C)C(C)=O)c2O1 | 375 mg/kg |
| O=P(O)(O)OCC(Cl)(Cl)Cl | 850 mg/kg and 1900 mg/kg |
| CC(=O)c1ccc(N)cc1 | 381 mg/kg |
| COC(=O)C1=C(C)NC(C)=C(C(=O)OC/C=C/c2ccccc2)C1c1cccc([N+](=O)[O-])c1 (stereo not given) | 2970 mg/kg |
| C1COCCOCCOCCO1 | 2830 mg/kg |
| CCCC1C2C=CC(C2)C1C=O (stereo not given) | 4600 mg/kg |
| COC(C)C=O (stereo not given) | 940 mg/kg |
| CSc1ncnc2c1ncn2C1OC(CO)C(O)C1O (stereo not given) | 214 mg/kg |
| CC(C)(C)N(CCO)CCO | 2720 mg/kg |
| CCN(CC)P1(=S)OCc2cc([N+](=O)[O-])ccc2O1 (stereo not given) | 150 mg/kg |
| O=S(=O)(O)C(F)(F)C(F)(F)C(F)(F)C(F)(F)F | 430 mg/kg |
| C=COCCOC(=O)C(=C)C | 5940 mg/kg |
| CCN(CC)CCOCc1cc(Br)cc(Br)c1OC | 500 mg/kg |
